Reference: patent US9637459B2, “Sodium and calcium salts of dihydroquinazoline derivative and use thereof as antiviral agents” (AiCuris GmbH & Co. KG, priority 2012, dated 2017)
Converted amounts (≈) assume the structure as drawn. Where two headings read alike, the source gives them in different places.

Tests used:
HCMV AD169 RV-HG = assay: HCMV fluorescence-reduction test (GFP-RA) in NHDF cells; assay type: cell-based, human cytomegalovirus; details: read-out: EC50 (GFP-RA)
Protocol: The in vitro effects of the compositions according to the present invention on the replication of the HCMV (human cytomegalovirus) can be seen in the following antiviral assay:
HCMV Fluorescence-Reduction Test.
The test compositions are used as a 50-millimolar (mM) solution in dimethyl sulphoxide (DMSO). Ganciclovir®, Foscarnet® or Cidofovir® can be used as reference compositions. One day before the beginning of the test, 1.5×10^4 human foreskin fibroblasts (NHDF cells)/well are seeded in 200 μl of cell culture medium in Wells B2-G11 of 96-well plates (black with transparent floor). The wells along the edges of each 96-well plate are filled with 200 μl of medium only in order to prevent edge effects. On the day of the test the cell culture medium in Wells B2-G11 of each 96-well plate is vacuumed off by a suction device and replaced with 100 μl of virus suspension (multiplicity of infection (MOI): 0.1-0.2). The virus used is a recombinant HCMV which has integrated an expression cassette for green fluorescence protein (GFP) in the virus genome (HCMV AD 169 RV-HG [E. M. Borst, K. Wagner, A. Binz, B. Sodeik, and M. Messerle, 2008, J. Virol. 82:2065-2078.]). After an incubation time of 2 h at 37° C. and 5% CO2, the virus inoculate is vacuumed off by a suction device and all wells, with the exception of the wells in Column 3, are filled with 200 μl of cell culture medium. Column 2 is not treated further and serves as a virus control. The wells in Column 3 are each filled with 300 μl of test substance (diluted in cell culture medium) for duplicate analysis. The concentration of the respective antiviral substance in Column 3 is ˜27 times as concentrated as the respective anticipated EC50 value. […] The GFP intensity of each well in a 96-well plate is then determined using a fluorescence scanner (FluoBox; Bayer Technology Services GmbH; filter settings: GFP, […], Em 520 nm). The measured values thus obtained can be used to determine the EC50 of an anti-HCMV: […]

[1] = Solubility measurement of saturated solution in phosphate buffer (HPLC); assay type: physicochemical
Protocol: In order to determine the solubility, a saturated solution of the salt from Example 2 was prepared in phosphate buffer at pH 7.0 and shaken at room temperature for 2 hours. The suspensions obtained were filtered by means of a syringe filter (0.45 μm pore diameter) and after being diluted the clear solutions were measured by HPLC. Pure phosphate buffer was used as the blank sample. The solubility was calculated in terms of the absorption of a reference solution of the amorphous zwitterion in phosphate buffer.

[2] = Human betaherpesvirus 5, AD169, NHDF, 168 h

Structure (SMILES)	EC50 (HCMV AD169 RV-HG; virus strain AD169 RV-HG, human foreskin fibroblasts (NHDF cells), 7 days incubation, 50% reduction of GFP fluorescence)	Solubility in buffer ([1]; pH 7)	EC50 (HCMV AD169 RV-HG; [2])	solubility at 2 h ([1]; aqueous buffer, thermodynamic from solid, phosphate buffer pH 7.0, room temperature, shaken 2 hours, filtered 0.45 μm, HPLC)
COc1cccc(N2CCN(C3=Nc4c(F)cccc4[C@H](CC(=O)[O-])N3c3cc(C(F)(F)F)ccc3OC)CC2)c1.O.O.O.[Na+] [Example 2, 3-hydrate of the monosodium salt of (S)-{8-fluoro-2-[4-(3-methoxyphenyl)piperazine-1-yl]-3-[2-methoxy-5-(trifluoromethyl)phenyl]-3,4-dihydroquinazoline-4-yl}acetic acid]	3.9 nM	>91700 µg/mL		
COc1cccc(N2CCN(C3=Nc4c(F)cccc4[C@H](CC(=O)O)N3c3cc(C(F)(F)F)ccc3OC)CC2)c1 [Example 6A, (S)-{8-fluoro-2-[4-(3-methoxyphenyl)piperazine-1-yl]-3-(2-methoxy-5-trifluoromethyl-phenyl)-3,4-dihydroquinazoline-4-yl}acetic acid]			3.4 nM	400 µg/mL (≈ 699 µM)
Nc1nc(O)c2ncn(COC(CO)CO)c2n1 [Ganciclovir, reference compound]			2200 nM	
